Test results from patent US20190076507A1, “Artificial Red Blood Cell Having Ability to Inhibit Conversion of Hemoglobin into Methemoglobin” (Public University Corporation Nara Medical University, priority 2016, published 2019).

What was measured:
Assay type in all cases: biochemical
[1] = Catalase (pseudo CAT) activity from change of absorbance at 230 nm of H2O2; settings: for catalase / CAT pseudo activity (in words): Examples 1 and 7; for pseudo CAT: Table 1, NADH without Hb, calculated relative to Hb conc. of 1.5 mM (10 g/dL)
Protocol: (§1) The activity of NADH-cytochrome b5 reductase in the above-mentioned purified and concentrated HbCO solution was determined as NADH-ferricyanide reductase activity according to Beutler, E. above. Diluted Hb samples comprising the enzyme to be measured is mixed with a buffer comprising NADH. The mixed solutions were left standing for 10 minutes at 30° C., and then potassium ferricyanide (K3Fe (CN)6), the enzyme substrate, was added to start the enzyme reaction. The decrease of difference of absorbance at 340 nm, a characteristic absorption of NADH, per minute was measured to determine activity unit E (IU/gHb). […] It was reasoned that the heat-labile NADH-cytochrome b5 reductase was eliminated as denatured and insoluble, or denatured and inactivated, due to the introduction of heat treatment during the purifying step. In addition, activities of NADPH metHb reductase and NADPH diaphorase, which correspond to NADPH-flavin reductase are also determined by the above-mentioned methods according to Beutler, E. Diluted blood samples comprising the enzyme to be measured is mixed with a buffer comprising NADPH. The mixed solutions were left standing for 10 minutes at 37° C., and then methylene bleu (MeBl), the enzyme substrate, was added to start the enzyme reaction. The decrease of difference of absorbance at 340 nm, a characteristic absorption of NADPH, per minute was measured to determine activity unit E (IU/gHb). […] Catalase activity of the purified HbCO solution was determined from the change of the absorbance at 230 nm, the absorption wavelength of H2O2, according to Beutler, E. (RED CELL METABOLISM: A MANUAL OF BIOCHEMICAL METHOD, Grune &Stratton, Inc. pp. 105-106 (1987)). […] Pyrogallol was used for measurement of SOD activity (Marklund, S. and Marklund, G., Eur. J. Biochem. 47, 469-474 (1974); Roth, E. F. Jr. and Gilbert, H. S., Anal. Biochem. 137, 50-53(1984)). Pyrogallol is oxidized with oxygen to generate superoxide, and further reacted to generate a yellow dye with absorbance at 420 nm. SOD inhibits this reaction. SOD enzyme activity was determined based on this inhibitory activity. Analyzed specimens were solutions of purified HbO2, HbCO, metHb and solutions thereof further comprising NADH or L-tyrosine In addition, enzyme activity of crude SFHb solution was also determined as a control. […] When NADH and HbO2 were coexisted, however, high CAT and SOD pseudo activities (Table 1). […] The pseudo activity was detected when NADH alone was present, however, the activity was about a tenth ( 1/10) compared with when HbO2 was coexisted. […] There were results showing that this pseudo activity increased as more NADH was added.

[2] = SOD (pseudo SOD) activity, pyrogallol method; settings: for SOD / SOD pseudo activity (in words): Examples 1 and 7; for pseudo SOD: Table 1, pyrogallol, absorbance at 420 nm, Hb form and antioxidant conc. per entry
Protocol: as §1

HbO2 = target: T1, HbO2 (Homo sapiens, UniProt P68871+P69905); test: Screening of suppressing effect of compounds against autoxidation of HbO2; settings: for metHb conversion (%): HbO2 10 g/dL, antioxidant 1 g/dL, 37° C., 24 hours
T1 construct: The Hb released by hemolysis was filtered and collected, with the red blood cell membrane components (stroma) separated and removed; from tissue; host or cells: human red blood cells (expired donated blood); heat-treated, nanofiltered, purified and concentrated HbCO, photoconverted to HbO2
Protocol: NADH was purchased from Oriental Yeast Co. Ltd., and all the rest were purchased from Sigma-Aldrich (St. Louis, Mo., USA). HbCO solution was transferred to an eggplant flask and irradiated with visible light (halogen lamp; LPL Videeoligtvl-302, LPLCO. Ltd., Tokyo, Japan) under oxygen gas flow to convert to HbO2. […] The conversion ratios to metHb were determined from the visible absorption spectrum. The measurement of spectrum between 300 nm to 500 nm was conducted using a spectrophotometer (V-660, Japan Spectroscopic Company (JASCO)) mounted with a device to control the light scattering to the minimum (an integrating sphere). The atmosphere inside of a Thunberg cuvette was replaced with nitrogen gas and the conversion ratios to metHb were determined from the ratios of absorbance at 405 nm (λmax of metHb) and 430 nm (λmax of deoxyHb).

T1 sequence (P69905 2-142 limits assumed): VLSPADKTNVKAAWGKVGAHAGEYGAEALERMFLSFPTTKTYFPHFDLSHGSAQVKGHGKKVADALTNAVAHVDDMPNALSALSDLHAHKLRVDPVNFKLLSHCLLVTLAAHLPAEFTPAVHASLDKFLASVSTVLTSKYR
T1 sequence (P68871 2-147 limits assumed): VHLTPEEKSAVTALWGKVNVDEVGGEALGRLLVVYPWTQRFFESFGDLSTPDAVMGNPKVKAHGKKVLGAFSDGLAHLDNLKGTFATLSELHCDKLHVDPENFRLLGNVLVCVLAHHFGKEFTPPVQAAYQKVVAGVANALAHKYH

Compound | metHb conversion (%) (HbO2) | further results
13: oxyhemoglobin 1.5 mM prepared from the purified Hb solution, no antioxidant [Entry 13] |  | catalase / CAT pseudo activity (in words) [1]: no enzyme activity was found; SOD / SOD pseudo activity (in words) [2]: no enzyme activity was found
14: methemoglobin 1.5 mM prepared from the purified Hb solution, no antioxidant [Entry 14] |  | catalase / CAT pseudo activity (in words) [1]: no enzyme activity was found; SOD / SOD pseudo activity (in words) [2]: no enzyme activity was found
15: carbonyl Hb 1.5 mM prepared from the purified Hb solution, no antioxidant [Entry 15] |  | catalase / CAT pseudo activity (in words) [1]: no enzyme activity was found; SOD / SOD pseudo activity (in words) [2]: no enzyme activity was found
Nc1ncnc2c1ncn2[C@@H]1O[C@H](COP(=O)(O)OP(=O)(O)OP(=O)(O)O)[C@@H](O)[C@H]1O [ATP] | 44 | 
O=C[C@H](O)[C@@H](O)[C@H](O)[C@H](O)CO [D-glucose] | 36 | 
NC(=O)C1=CN([C@@H]2O[C@H](COP(=O)(O)OP(=O)(O)OC[C@H]3O[C@@H](n4cnc5c(N)ncnc54)[C@H](O)[C@@H]3O)[C@@H](O)[C@H]2O)C=CC1 [Entry 10, NADH] |  | pseudo CAT [1]: 3.6 × 10^4 *) IU/g Hb; pseudo SOD [2]: 1.1 × 10^2 U/g Hb
NC(=O)C1=CN([C@@H]2O[C@H](COP(=O)(O)OP(=O)(O)OC[C@H]3O[C@@H](n4cnc5c(N)ncnc54)[C@H](O)[C@@H]3O)[C@@H](O)[C@H]2O)C=CC1 [Entry 11, NADH] |  | pseudo CAT [1]: 4.1 × 10^4 *) IU/g Hb; pseudo SOD [2]: 1.3 × 10^2 U/g Hb
NC(=O)C1=CN([C@@H]2O[C@H](COP(=O)(O)OP(=O)(O)OC[C@H]3O[C@@H](n4cnc5c(N)ncnc54)[C@H](O)[C@@H]3O)[C@@H](O)[C@H]2O)C=CC1 [Entry 12, NADH] |  | pseudo CAT [1]: 19.2 × 10^4 *) IU/g Hb; pseudo SOD [2]: 0.6 × 10^2 U/g Hb
N=C(N)NCCC[C@H](N)C(=O)O [L-arginine] | 38 | 
NC(=O)C[C@H](N)C(=O)O [L-asparagine] | 40 | 
N[C@@H](CS)C(=O)O [L-cysteine] | 34 | 
NC(=O)CC[C@H](N)C(=O)O [L-glutamine] | 43 | 
N[C@@H](Cc1c[nH]cn1)C(=O)O [L-histidine] | 32 | 
NCCCC[C@H](N)C(=O)O [L-lysine] | 34 | 
CSCC[C@H](N)C(=O)O [L-methionine] | 41 | 
N[C@@H](Cc1c[nH]c2ccccc12)C(=O)O [L-tryptophan] | 38 | 
N[C@@H](Cc1ccc(O)cc1)C(=O)O [L-tyrosine] | 38 | 
NC(=O)C1=CN([C@@H]2O[C@H](COP(=O)(O)OP(=O)(O)OC[C@H]3O[C@@H](n4cnc5c(N)ncnc54)[C@H](OP(=O)(O)O)[C@@H]3O)[C@@H](O)[C@H]2O)C=CC1 [NADPH, nicotinamide adenine dinucleotide phosphate (NADPH)] | 37 | effect to suppress metHb conversion compared with NADH (HbO2; coexisting with HbO2 at 37° C. for 26 hours): inferior to that of NADH
CC1=C(/C=C/C(C)=C/C=C/C(C)=C/C=C/C=C(C)/C=C/C=C(C)/C=C/C2=C(C)C(=O)[C@@H](O)CC2(C)C)C(C)(C)C[C@H](O)C1=O [astaxanthin] | 39 | 
OCC(O)CO [glycerol] | 38 | 
NC(=O)c1cccnc1 [nicotinamide] | 34 | 
O=c1c(O)c(-c2ccc(O)c(O)c2)oc2cc(O)cc(O)c12 [quercetin] | 42 | 
O=C1O[C@H]([C@@H](O)CO)C([O-])=C1O.[Na+] [sodium L-Ascorbate] | 37 | 
O=C([O-])[C@H](O)[C@@H](O)[C@H](O)[C@H](O)CO.[Na+] [sodium gluconate] | 49 | 
